Data on 10 compounds can be found in patent US20100310467A1, “COMPOSITION AND METHOD FOR GENERATING A METABOLIC PROFILE USING 13C-MR DETECTION” (priority 2007, published 2010).

The nature of data set [1]: Liquid state polarisation and T1 by liquid state 13C-NMR. In kind it is physicochemical. The conditions noted are these: for T1: at 9.4 T; for Liquid state polarisation: liquid state 13C-NMR at 400 MHz, after 90 minutes DNP and dissolution. Here is the method:
In a similar way, the level of polarisation for dissolved hyperpolarised ^13C-fumarate may be determined by liquid state NMR measurements. Again the signal intensity of the dissolved hyperpolarised ^13C-fumarate is compared with the signal intensity of the dissolved ^13C-fumarate before polarisation. The level of polarisation is then calculated from the ratio of the signal intensities of ^13C-fumarate before and after polarisation.
After 90 minutes of dynamic nuclear polarisation, the obtained frozen polarised composition was dissolved in 6 ml of a solution prepared from 5.87 ml water (100 mg/l EDTA added), 133 μl NaOH aq (2 M) and 30 mg NaCl. The pH of the final solution containing the dissolved composition was 7.2. The ^13C1,4-fumarate concentration in said final solution was 50 mM.
Liquid state polarisation was determined by liquid state ^13C-NMR at 400 MHz to be 21%. T1 at 9.4 T was 34 s.

Data set [2] is described as follows: Solid state polarisation by solid state 13C-NMR after DNP. In kind it is physicochemical. The note with it: DNP at 1.2 K, 3.35 T, microwave 93.90 GHz, trityl radical and Gd-chelate. From the text: The level of polarisation may for instance be determined by solid state ^13C-NMR measurements in solid hyperpolarised ^13C-fumarate, e.g. solid hyperpolarised ^13C-fumarate obtained by dynamic nuclear polarisation (DNP) of ^13C-fumarate. The solid state ^13C-NMR measurement preferably consists of a simple pulse-acquire NMR sequence using a low flip angle. The signal intensity of the hyperpolarised ^13C-fumarate in the NMR spectrum is compared with signal intensity of ^13C-fumarate in a NMR spectrum acquired before the polarisation process. The level of polarisation is then calculated from the ratio of the signal intensities of before and after polarisation.
The probe is inserted into the probe-retaining container, submerged in the liquid helium and irradiated with microwaves, preferably at a frequency of about 94 GHz at 200 mW. The level of polarisation may be monitored by for instance acquiring solid state ^13C-NMR signals of the probe during microwave irradiation. Generally, a saturation curve is obtained in a graph showing NMR signal vs. time. […] A solid state ^13C-NMR measurement suitably consists of a simple pulse-acquire NMR sequence using a low flip angle. The signal intensity of the dynamic nuclear polarised nuclei, i.e. ^13C nuclei in ^13C-fumaric acid or ^13C-fumarate is compared with the signal intensity of the ^13C nuclei in ^13C-fumaric acid or ^13C-fumarate before DNP. The polarisation is then calculated from the ratio of the signal intensities before and after DNP.
To a micro test tube was added ^13C1,4-fumaric acid (33.5 mg, 0.284 mmol), TRIS (42 mg, 0.347 mmol) and 22.5 μl water. The test tube was gently heated and sonicated to dissolve all compounds. […] Polarisation was followed by solid state ^13C-NMR and the solid state polarisation was determined to be 25%.

Another data set deals with mouse hind leg muscle. The data set is described as follows: In vivo 13C-MR spectroscopy of mouse leg before and after ischemic injury. Further details: species or system C57Bl/6 mouse. As for the experimental part:
175 μl of an imaging medium comprising hyperpolarised sodium ^13C1,4-fumarate which was prepared as described in Example 2 was injected into a C57Bl/6 mouse over a time period of 6 s. The sodium ^13C1,4-fumarate concentration in said imaging medium was about 50 mM. A surface coil (tuned for carbon) was positioned around the leg muscle and signals of ^13C-fumarate and ^13C-malate were detected by ^13C-MR spectroscopy which was carried out in a 2.4 T Bruker spectrometer to generate a metabolic profile. A total of 60 ^13C-spectra were acquired with a repetition time of 2 s and 15 degree RF pulses. Ischemia in a mouse leg muscle was made by strangulation of the hind leg muscle. Following an ischemic period of 30 min the mouse leg muscle was re-perfused for one hour. In this Example, the ^13C-malate signal is approximately 0.5% of the ^13C-fumarate signal in the mouse muscle before ischemia. Following ischemia and 5 min. reperfusion the ^13C-malate signal is approximately 1.5% of the ^13C-fumarate signal. After 60 min. reperfusion the ^13C-malate signal is approximately 4% of the ^13C-fumarate signal. With an identical protocol signals of ^13C-pyruvate and ^13C-lactate were detected by ^13C-MR spectroscopy (polarisation of pyruvate was carried out as described in Example 2 of WO-A-2006/011809).

Data set [3] relates to subcutaneous mouse lymphoma (EL-4). In words: 13C-dynamic imaging of subcutaneous mouse lymphoma with and without etoposide treatment. The conditions noted are these: EL-4 tumours, 22-26 hours after etoposide injection, n=5, signal normalized to maximum fumarate signal. It counts as in vivo, C57Bl/6 mouse. Here is the method: EL-4 cells were injected into a C57Bl/6 mouse to generate a subcutaneous mouse lymphoma. On day 9 after implantation, the EL4 tumour was imaged. 175 μl of an imaging medium comprising hyperpolarised sodium ^13C1-fumarate-d2 which was prepared as described in Example 3 was injected into the mouse over a time period of 6 s. The sodium ^13C1-fumarate-d2 concentration in said imaging medium was about 20 mM. A surface coil (tuned for carbon) was positioned over the subcutaneous tumour and signals of ^13C-fumarate and ^13C-malate were detected by ^13C-MR spectroscopy which was carried out using a 2.4 T Bruker spectrometer to generate a metabolic profile of the tumour and the surrounding healthy tissue. A slice selective FID was acquired with a 10° RF flip angle, TR=3 s, and 60 repetitions. […] Signal amplitudes for both malate and fumarate were normalized to the maximum fumarate signal and were measured as a function of time. […] Fumarase may be an ideal candidate enzyme for this because it requires no cofactors for its activity (so its activity is solely determined by the availability of the enzyme and the substrate) and the rate of conversion is very fast in vivo (about ˜2-4 fold faster than lactate dehydrogenase) making it a sensitive test.

The next data set relates to cells. In words: Further in vitro experiments, malate production after etoposide treatment. It counts as cell-based.
In data set [4] the test system is Dicarboxylate Transporter (DCT). The data set is described as follows: In vitro hyperpolarized malate production with transporter inhibition. In kind it is cell-based.
In data set [5] the test system is MDA-MB-231 cells (human epithelial breast cell adenocarcinoma). The data set is described as follows: In vitro 13C-MR detection, conversion of 13C-fumarate to 13C-malate. In kind it is cell-based. Here is the method:
(§1) 50 μl (2.7 mM in sodium ^13C1-fumarate-d2) of an imaging medium which was prepared according to Example 3 was mixed into 8*10^6 MDA-MB-231 cells (human epithelial breast cell adenocarcinoma). Signals of ^13C-fumarate and ^13C-malate were detected by acquiring a set of ^13C-MR spectra every 5 s with a 15 degree RF pulse. The result is shown in FIG. 1: ^13Cmalate was building up over time. The conversion rate was 70 μmol/min*g soluble protein with a peak ^13C-malate signal after approximately 30 s. With an identical protocol conversion rates were calculated for three other human cancer cell lines, these are compared in Table 1.
(§2) Table. […] Formation of ^13C1,4-malate-d2 from ^13C1-fumarate is calculated for the 4 investigated cell lines (n≧3). […] This cell line is highly invasive and hormone-insensitive and represents a late stage cancer. Formation rate of malate varies greatly between the two prostate cancer lines, with a 7 times higher conversion rate in the more aggressive PC-3 line, compared to DU-145.

For a further data set, the system named is DU-145 cells. The data set is described as above. It counts as cell-based, human. The conditions noted are these: n≧3. Here is the method: as §1, §2
The next data set concerns H-EMC-SS cells. The data set is described as above. It counts as cell-based, human. The note with it: n≧3. As for the experimental part:
as §1, §2

The next data set deals with PC-3 cells. Described as above. In kind it is cell-based, human. Here is the method: as §1, §2

In data set [1], `O=[13C](O)/C=C/[13C](=O)O` [^13C1,4-fumarate] yielded a T1 of 34 s and a Liquid state polarisation of 21%.

In turn, `O=[13C](O)/C=C/[13C](=O)O` [^13C1,4-fumaric acid] came in with a solid state polarisation in data set [2] of 30%.

Take `[2H]/C(C(=O)O)=C(/[2H])[13C](=O)O` [^13C1-fumaric acid-d2]: in data set [2], the solid state polarisation was found to be 41%.

Consider `CC(=O)[13C](=O)O` [^13C-pyruvate, reference compound], for which the “13C-lactate signal relative to pyruvate signal” value in the data set on mouse hind leg muscle (60 min reperfusion) was “back to levels comparable to the healthy muscle”; in the data set with mouse hind leg muscle (directly after ischemia), “increases to above the pyruvate signal”. For the same compound, the “13C-lactate signal as % of the 13C-pyruvate signal” value in the data set with mouse hind leg muscle (healthy muscle) is listed as “approximately 40%”.

Take `COc1cc([C@@H]2c3cc4c(cc3[C@@H](O[C@@H]3O[C@@H]5CO[C@@H](C)O[C@H]5[C@H](O)[C@H]3O)[C@H]3COC(=O)[C@H]23)OCO4)cc(OC)c1O` [etoposide]: the “malate signal compared to untreated tumours” value in data set [3] is 65%. Further, the malate production result is reported as “increase in malate production” in the data set on cells (after 14 hrs of treatment with etoposide) and “further increase” with cells (after 16 hrs of treatment with etoposide).

Take `[Cl-].[Li+]` [lithium chloride]: the “change in hyperpolarized malate production” value in data set [4] (provisional experiments with lithium chloride) is recorded as “only a small reduction”.

On to `O=[13C]([O-])/C=C/[13C](=O)[O-].[Na+].[Na+]` [sodium ^13C1,4-fumarate], for which the “13C-malate signal as % of the 13C-fumarate signal” value in the data set with mouse hind leg muscle (30 min ischemia, 5 min reperfusion) was “approximately 1.5%”; in the data set with mouse hind leg muscle (30 min ischemia, 60 min reperfusion), “approximately 4%”; with mouse hind leg muscle (mouse muscle before ischemia), “approximately 0.5%”. The compound further had a T1 in [1] of 34 s. In addition, in data set [1], the Liquid state polarisation is recorded as 29%.

As to `[2H]/C(C(=O)[O-])=C(/[2H])[13C](=O)[O-].[Na+].[Na+]` [sodium ^13C1-fumarate-d2], the “conversion rate (fumarate to malate)” value in [5] (8*10^6 MDA-MB-231 cells, 50 μl imaging medium (2.7 mM), FIG. 1) is 70 μmol/min*g soluble protein. Moreover, the Malate formation rate is on record as 77 ± 19 μmol min^−1 g^−1 protein in [5] (MDA-MB-231 cells, n≧3); 6 ± 2 μmol min^−1 g^−1 protein in the data set with DU-145 cells; 40 ± 14 μmol min^−1 g^−1 protein with H-EMC-SS cells; 42 ± 0.5 μmol min^−1 g^−1 protein with PC-3 cells (PC-3 cells, n≧3). Moreover, in data set [5] (MDA-MB-231 cells, spectra every 5 s), the “time of peak 13C-malate signal” value is given as “approximately 30 s”. In the data set with PC-3 cells (prostate cancer lines PC-3 vs DU-145), the “conversion rate in PC-3 compared to DU-145” value turned out to be 7 times. In addition, in data set [1], the T1 was found to be 44 s. In addition, in [1], the Liquid state polarisation is listed as 40%.

On to `O=C(O)CCC(=O)O` [succinate], for which the “change in malate production” value in [4] (excess (50 mM) of unlabelled, non-hyperpolarized succinate added) is listed as “only a small reduction”.

As to TRIS-^13C1,4-fumarate, the solid state polarisation in data set [2] is 25%.
